According to patent US20140363530A1, “COMPOSITION COMPRISING THE EXTRACT OF PINE TREE LEAF OR THE COMPOUNDS ISOLATED THEREFROM FOR THE PREVENTION AND TREATMENT OF CANCER DISEASE BY INHIBITING HPV VIRUS AND THE USES THEREBY” (priority 2012, published 2014):
Converted amounts (≈) assume the structure as drawn. Where two headings read alike, the source gives them in different places.

Tests used:
[1] = test system: HCT15 (human colon adenocarcinoma); experiment: SRB cytotoxicity test, HCT15; assay type: cell-based; details: Homo sapiens, HCT-15, 48 h
Method: (§1) To determine the cytotoxicity against human tumor cell line of the test samples prepared in Examples, following sulforhodamin B (SRB) bioassy test was performed according to the method disclosed in the literature (Skehan, P., et al., J. Natl. Cancer Inst., 82, 1990, 1107-1112).
(§2) Various human tumor cell lines, i.e., A-549 (human adenocarcinoma of lung, NCI), SK-OV-3 (human ovarian tumor, NCI), SK-MEL-2 (human malignant melanoma, NCI), HCT15 (human colon adenocarcinoma, NCI), MES-SA (human uterine carcinoma, NCI) and MES-SA/DX5 (multidrug resistant carcinoma subline of MES-SA, NCI) were used in the test.
(§3) The subcultured cell lines were detached from the surface of wall using by trypsin-EDTA solution and adjusted to various concentration of cell lines, i.e., 5×10^3 cells/well (A-549, HCT15), 1×10^4 cells/well (SK-MEL-2), 5×10^3 cells/well (SK-OV-3) in 96-well flat bottom microplate. The inoculated cell lines were incubated in CO2 incubator (MCO-20AIC, SANYO Electric Co., LTd.) to be attached on the bottom of incubator and the culture media was removed with aspirator. 6 logarithmic concentrations of the diluted test samples were added to each well containing cell line at 100 μl/well in a three fold dilution manner and the cell was incubated for 48 hours. The culture media in each well was removed and 100μ of 10% trichloroacetic acid was added thereto to be left alone at 4° C. for 1 hour and to fix the cells to the bottom of the plates. […] The cell plates were shaked with titer plate shaker (KOMA Orbital Shaker KE011, KOMABIOTech) for 10 mins to exude the staining solution and to determine the absorbance at 520 nm using by microplate spectrophotometer (Sunrise, TECAN).

HCT15/CL02 = experiment: SRB cytotoxicity test, HCT15/CL02; assay type: cell-based, human; details: Homo sapiens, HCT-15; Table 4, 48 hours
Method: To determine the cytotoxicity against human tumor cell line of the test samples prepared in Examples, following sulforhodamin B (SRB) bioassy test was performed according to the method disclosed in the literature (Skehan, P., et al., J. Natl. […] The inoculated cell lines were incubated in CO2 incubator (MCO-20AIC, SANYO Electric Co., LTd.) to be attached on the bottom of incubator and the culture media was removed with aspirator. 6 logarithmic concentrations of the diluted test samples were added to each well containing cell line at 100 μl/well in a three fold dilution manner and the cell was incubated for 48 hours. […] The cell plates were shaked with titer plate shaker (KOMA Orbital Shaker KE011, KOMABIOTech) for 10 mins to exude the staining solution and to determine the absorbance at 520 nm using by microplate spectrophotometer (Sunrise, TECAN).

[2] = test system: SK-MEL-2 (human malignant melanoma); experiment: SRB cytotoxicity test, SK-MEL-2; assay type: cell-based; details: Homo sapiens, read-out: Cytotoxicity IC50, SK-MEL-2
Method: as §1, §2, §3

[3] = test system: MES-SA/DX5 (multidrug resistant carcinoma subline of MES-SA); experiment: SRB cytotoxicity test, MES-SA/DX5; assay type: cell-based, human; details: Homo sapiens, MES-SA/Dx5, 48 h, read-out: Cytotoxicity IC50, MES-SA/DX5
Method: as §1, §2, §3

[4] = test system: MES-SA (human uterine carcinoma); experiment: SRB cytotoxicity test, MES-SA; assay type: cell-based; details: Homo sapiens, MES-SA, 48 h
Method: as §1, §2, §3

[5] = test system: A-549 (human adenocarcinoma of lung); experiment: SRB cytotoxicity test, A-549; assay type: cell-based; details: Homo sapiens, read-out: Cytotoxicity IC50, A-549
Method: as §1, §2, §3

[6] = test system: SK-OV-3 (human ovarian tumor); experiment: SRB cytotoxicity test, SK-OV-3; assay type: cell-based; details: Homo sapiens, read-out: Cytotoxicity IC50, SK-OV-3
Method: as §1, §2, §3

HPV16 PVs [7] = experiment: Virus inhibition test (in vitro), SEAP activity of 293TT cells infected with HPV pseudovirion; assay type: cell-based; details: Human papillomavirus 16, read-out: inhibitory activity on HPV16 PVs
HPV16 PVs [8] = experiment: as above; assay type: cell-based; details: Human papillomavirus 16, read-out: inhibitory activity from HPV16 PVs
Method: Prior to in vitro antiviral assay, 5×10^3 of 293TT cell was seeded on 96-well plate and incubated at 37° C. for 16 hours in 5% CO2 atmosphere. The culture media was removed and each extract was diluted to the concentration of 100 μg/ml or 50 μg/ml to distribute into each cell at the dose of 100 μl/cell. After treating with the extract for 16 hours, the culture media was removed and the cell was washed with PBS twice. The cell was infected by 106RLU/ml of HPV PVs at the dose of 100 μl/cell and incubated for 48 hours at 37° C. in 5% CO2 atmosphere. To determine the viral activity, the supernatant of the cell culture was used for determine the activity of secreted alkaline phosphatase (SEAP) using by Great EscAPE™ SEAP Chemiluminescence Kit (631738, Clontech, CA, USA). To determine the SEAP activity, relative light units (RLU) value was obtained using by Luminescence coulter (Micro beta triLux 1450, PerkinElmer, CT, USA) and the RLU values of the cell treated with the extract and untreated with the extract, were compared with each other. The decrease of SEAP activity was regarded as the inhibition effect against HPV PVs.
To determine the inhibitory effect on luciferase-comprising HPV virus contagion of the test samples prepared in Examples, following test was performed according to the method disclosed in the literature (Shaneyfelt et al., Virology Journal, 3:68, 2006, 1-11; Roden et al., J. Virol., 70, 1996, 5875-5883; Unckell et al., J. Virol., 71, 1997, 2934-2939; Touze et al., Nucleic Acids Research, 26, 1998, 1317-1323; Selinka et al., J. Virol., 77, 2003, 12961-12967; Klasse et al., Journal of General Virology, 83, 2002, 2091-2108)
5×10^3293TT cell was seeded on 96-well plate and incubate for 16 hours. 50 μg of test sample was mixed with the culture media in the concentration of 100 ug/ml and incubated for 16 hours. The media was washed with 100 μl of PBS twice and the cell was infected with 10^6RLU/ml of HPV pseudovirion at the dose of 100 μl/cell to incubate at 37° C., for 48 hours in 5% CO2 atmosphere.
5× lysis buffer in Great EscAPE™ SEAP Chemiluminescence Kit (631738, Clontech, CA, USA) was made to 1× and both of 45 μl of 1× lysis buffer and 15 μl of cell culture medium were added to 96-well plate (3912, Costar, NY, USA). 60 μl of the substrate in Great EscAPE™ SEAP Chemiluminescence kit was added thereto and the relative light units (RLU) value was obtained using by Luminescence coulter (Micro beta triLux 1450, PerkinElmer, CT, USA). The RLU values of the cell treated with the extract and untreated with the extract, were compared with each other and the decrease of SEAP activity was regarded as the inhibition effect against HPV PVs.

## COc1cccc2c1C(=O)c1c(O)c3c(c(O)c1C2=O)C[C@@](O)(C(=O)CO)C[C@@H]3O[C@H]1C[C@H](N)[C@H](O)[C@H](C)O1 [doxorubicin, reference compound]
[1]; read-out: Cytotoxicity IC50, HCT15, Table 3, 48 hours
  IC50: 0.0833 µg/mL (≈ 0.153 µM)
[1]; read-out: Cytotoxicity IC50, HCT15, Table 4, 48 hours
  IC50: 0.016 µg/mL (≈ 0.0294 µM)
HCT15/CL02
  IC50: 2.11 µg/mL (≈ 3.88 µM)
[2]; SK-MEL-2, 48 h
  IC50: 0.0012 µg/mL (≈ 0.00221 µM)
[3]; Table 1, extract and solvent fractions, 48 hours
  IC50: 0.412 µg/mL (≈ 0.758 µM)
[3]; Table 2, purified extracts, 48 hours
  IC50: 0.412 µg/mL (≈ 0.758 µM)
[3]; Table 3, 48 hours
  IC50: 1.45 µg/mL (≈ 2.67 µM)
[3]; Table 4, 48 hours
  IC50: 1.45 µg/mL (≈ 2.67 µM)
[4]; read-out: Cytotoxicity IC50, MES-SA, Table 1, extract and solvent fractions, 48 hours
  IC50: 0.0002 µg/mL (≈ 0.000368 µM)
[4]; read-out: Cytotoxicity IC50, MES-SA, Table 2, purified extracts, 48 hours
  IC50: 0.0002 µg/mL (≈ 0.000368 µM)
[4]; read-out: Cytotoxicity IC50, MES-SA, Table 3, 48 hours
  IC50: 0.0051 µg/mL (≈ 0.00938 µM)
[4]; read-out: Cytotoxicity IC50, MES-SA, Table 4, 48 hours
  IC50: 0.0051 µg/mL (≈ 0.00938 µM)
[5]; A549, 48 h
  IC50: 0.0072 µg/mL (≈ 0.0132 µM)
[6]; SK-OV-3, 48 h
  IC50: 0.0104 µg/mL (≈ 0.0191 µM)

## CC(C)c1ccc2c(c1)CC[C@H]1[C@](C)(C(=O)O)CCC[C@]21C [compound (i), dehydroabietic acid]
[1]; read-out: Cytotoxicity IC50, HCT15
  IC50: 15.7 µg/mL (≈ 52.2 µM)
HPV16 PVs [7]
  inhibition at 5 µg/mL: ~50%
[2]; SK-MEL-2, 48 h
  IC50: 13 µg/mL (≈ 43.3 µM)
[3]
  IC50: 12 µg/mL (≈ 40 µM)
[4]; read-out: Cytotoxicity IC50, MES-SA
  IC50: 10.3 µg/mL (≈ 34.4 µM)
HPV16 PVs [8]
  inhibition at 50 µg/mL: 70 to 80%
[5]; A549, 48 h
  IC50: 13.4 µg/mL (≈ 44.7 µM)
[6]; SK-OV-3, 48 h
  IC50: 17.3 µg/mL (≈ 57.5 µM)

## C=C[C@]1(C)C=C2CC[C@@H]3[C@](C)(CCC[C@@]3(C)C(=O)O)[C@H]2CC1 [compound (j), sandaracopimaric acid]
[1]; Table 3, 48 hours, read-out: Cytotoxicity IC50, HCT15
  IC50: 13.6 µg/mL (≈ 44.9 µM)
HPV16 PVs [7]
  inhibition at 5 µg/mL: ~50%
[2]; SK-MEL-2, Table 3, 48 hours
  IC50: 11.2 µg/mL (≈ 36.9 µM)
[3]
  IC50: 11.1 µg/mL (≈ 36.6 µM)
[4]; Table 3, 48 hours, read-out: Cytotoxicity IC50, MES-SA
  IC50: 10.4 µg/mL (≈ 34.6 µM)
HPV16 PVs [8]
  inhibition at 50 µg/mL: 70 to 80%
[5]; A549, Table 3, 48 hours
  IC50: 13.6 µg/mL (≈ 45.1 µM)
[6]; SK-OV-3, Table 3, 48 hours
  IC50: 12.1 µg/mL (≈ 40.1 µM)
